Patent publication US20210260078A1, “LOW DOSAGE INTRANASAL AMINOSTEROL DOSAGE FORMS AND METHODS OF USING THE SAME” (Enterin, Inc., priority 2018, published 2021)
“Also recorded” adds a separate entry of the source. Where two headings read alike, the source gives them in different places. Each block holds one compound with its values, some of them ahead of it.

Legend:
[1] = Plasma pharmacokinetics after intranasal (IN) administration; type: in vivo, Sprague Dawley® (SD) rats
From the text: (§1) The purpose of this example was to evaluate the in vivo distribution and function of aminosterols, such as Aminosterol 1436 and squalamine, following intranasal administration. This experiment relates to the amount of drug needed to obtain a therapeutic result, based on an IN route of administration. The results described below detail that aminosterols such as Aminosterol 1436 act at the level of the hypothalamus following in vivo administration, regardless of the route of administration.
(§2) Pharmacokinetic information for these tests can be found in the tables below.

[2] = PK profile, IV bolus compared with IN administration (FIG. 9); type: in vivo; conditions: rat, plasma
From the text: Thus, the amount of aminosterol in the bloodstream is too low to account for the observed pharmacological effect. This means that when administered IN, an aminosterol is having a pharmacological effect via a mechanism other than via plasma concentration of the drug.

[3] = In vivo brain distribution of radiolabeled Aminosterol 1436 after ICV and IV administration; parameters: species or system rat; conditions: 3H-labeled
From the text: The purpose of this example was to evaluate the in vivo distribution of Aminosterol 1436 following intracerebroventricular (ICV) and intravenous (IV) administration to rats. ICV injection is an invasive injection technique of substances directly into the cerebrospinal fluid in cerebral ventricles to bypass the blood brain barrier. The results described below detail how aminosterols such as Aminosterol 1436 localize in the brain following in vivo administration, regardless of the route of administration.
Radiolabeled Aminosterol 1436 was injected into rats by two different forms of administration: ICV and IV administration.

[4] = CSF concentration after intranasal (IN) administration; type: in vivo, Sprague Dawley® (SD) rats
From the text: as §1, §2

[5] = Weight change after IP or IN administration (FIG. 8); type: in vivo, mice
Experimental: The purpose of this example was to evaluate and compare the impact on weight following administration of an aminosterol such as Aminosterol 1436 to mice via IP or IN.
Mice were administered: (i) intraperitoneally 1 mg/kg or 10 mg/kg of Aminosterol 1436, (ii) intranasally 0.4 mg/kg of Aminosterol 1436, or (iii) a saline control administered IN. Weight of the mice was then measured for 10 days post-administration.

[6] = Food intake and body weight after IP or ICV administration (FIG. 2B, 2C); type: in vivo; conditions: 10 and 40 μg ICV, 5 mg/kg IP, 10 day period
From the text: The purpose of this example was to evaluate the in vivo distribution of the aminosterol Aminosterol 1436 following intraperitoneal administration (IP) and ICV administration, and to determine the impact the drug has on food intake and body weight when administered IP and ICV.
This experiment is relevant as the areas of the brain where the aminosterol Aminosterol 1436 localized upon administration are known to control feeding behavior and appetite.

[7] = Sprague-Dawley, rat, inhaled or intranasal, plasma, 0.5 mg/kg IN dose, mean
[8] = plasma, 0.5 mg/kg IN dose, mean (Table 4)

Blood levels after intranasal administration relative to peripherally injected ([1]; IN versus peripherally injected): 10 times
AUC(0-inf) [1, 7]: 17900 ng·h/mL
AUC(0-t) [1, 7]: 9370 ng·h/mL
Cmax [1, 7]: 1680 ng/mL
half-life [1, 7]: 455 min
MRT inf ([1]; Sprague-Dawley, rat, inhaled or intranasal, plasma, 0.5 mg/kg IN dose, mean, read-out: MRTInf_obs): 11.1 h
Tmax ([1]; Sprague-Dawley, rat, inhaled or intranasal, plasma, 0.5 mg/kg IN dose, mean, read-out: Tmax): 4 h
bioavailability ([2]; other: intranasal, IN 0.5 mg/kg compared with IV bolus 2 mg/kg): ~20%
AUC ([2]; IV bolus 2 mg/kg, read-out: PK profile value after IV bolus injection (AUC)): 190 µg·h/mL
Site of localization in brain ([3]; IV administration): localized in the hypothalamus
SMILES: CC(C)[C@@H](CC[C@@H](C)[C@H]1CC[C@H]2[C@@H]3[C@H](O)C[C@H]4C[C@@H](NCCCNCCCCNCCCN)CC[C@]4(C)[C@H]3CC[C@]12C)OS(=O)(=O)O [Aminosterol 1436]
Site of localization in brain ([3]; ICV administration): localized to the same regions of the brain
Drug found in CSF ([4]; Sprague-Dawley, rat, in vivo, 0.5 mg/kg): No squalamine lactate or Aminosterol 1436 was found in CSF
Decrease in weight, comparison in words ([5]; 0.4 mg/kg IN, 10 days post-administration): comparable to 10 mg/kg of intraperitoneally administered Aminosterol 1436
Decrease in weight ([5]; 0.4 mg/kg intranasal (IN)): about 5%
Effect on weight (anti-feeding effect) ([5]; 1 mg/kg IP, compared with IN saline control): compared similarly to the intranasally administered saline control; also recorded: no anti-feeding effect
Decrease in weight ([5]; 10 mg/kg IP): about 19%
Effect on food intake [6]: significant impact on food intake

AUCInf [1, 8]: 7863 ng·h/mL
AUClast [1, 8]: 5296 ng·h/mL
MRTInf_obs [1, 8]: 7.12 H
T1/2 [1, 8]: 4.55 H
Tmax [1, 8]: 1.00 H
SMILES: CC(C)[C@@H](CC[C@@H](C)[C@H]1CC[C@H]2[C@@H]3[C@H](O)C[C@H]4C[C@@H](NCCCNCCCCN)CC[C@]4(C)[C@H]3CC[C@]12C)OS(=O)(=O)O.C[C@H](O)C(=O)O.O [Squalamine Lactate]
Drug found in CSF ([4]; CSF, 0.5 mg/kg IN): No squalamine lactate or Aminosterol 1436 was found in CSF
